According to patent US8309768B2, “FTY720-derived anticancer agents” (The Ohio State University Research Foundation, priority 2010, dated 2012):
pIC50: −log10 of the molar value.

Legend:
[1] = target: T1, S1P1 receptor-overexpressing Huh7 cells (Homo sapiens, UniProt P21453); test: Immunocytochemical analysis of S1P1 receptor internalization; format: cell-based; settings: immunocytochemistry
T1 construct: expressed in transfected cells
Procedure: Immunocytochemistry. Immunocytochemical analysis of S1P1 internalization and PKCδ nuclear translocation were performed as described. […] Briefly, treated cells were washed, fixed with 4% paraformaldehyde, and permeabilized with 0.1% Triton X-100. After blocking with 2% FBS, cells were incubated with rabbit anti-S1P1 or rabbit anti-PKCδ antibodies (1:200 dilution, 4° C., 24 h), followed by Alexa Fluor 488-conjugated goat anti-rabbit IgG (room temperature, 1 h). Nuclei were counterstained with a 4,6-diamidino-2-phenylindole (DAPI)-containing mounting medium (Vector Laboratories, Burlingame, Calif.).

Huh7 cells = test: MTT cell viability assay, Huh7; format: cell-based; settings: Homo sapiens, Huh-7, 24 h of treatment, MTT
Procedure: (§1) Cell lines, culture and reagents. The HCC cell lines Hep3B, PLC5 and Huh7, as well as primary nonmalignant human hepatocytes were used in this study. Cancer cells were cultured in Dulbecco's Modified Eagle's medium (DMEM) supplemented with 10% fetal bovine serum (FBS). Hepatocytes were maintained in defined Hepatocyte Culture Medium. […] Various polyclonal and monoclonal antibodies were used for western blotting, immunocytochemical, and flow cytometric analyses.
(§2) Cell viability assay. Cell viability was assessed by 3-(4,5-dimethylthiazol-2-yl)-2,5-diphenyl-2H-tetrazolium bromide (MTT) assays in six replicates. Cells were seeded (4,000 cells/well; 96-well plate) for 24 h and treated with test agents in 5% FBS-supplemented DMEM. After treatment, cells were incubated in medium containing 0.5 mg/ml MTT (37° C., 2 h). Reduced MTT was dissolved in DMSO (200 μL/well) and absorbances measured at 570 nm.

Hep3B cells = test: MTT cell viability assay, Hep3B; format: cell-based; settings: Homo sapiens, 24 h of treatment
Procedure: as §1, §2

PLC5 cells = test: MTT cell viability assay, PLC5; format: cell-based; settings: 24 h of treatment
Procedure: as §1, §2

normal human hepatocytes = test: MTT cell viability assay, normal hepatocytes; format: cell-based; settings: 24 h
Procedure: as §1, §2

[2] = tested on: Hep3B, Huh7, and PLC5 cells; test: ROS production by flow cytometry with DCFDA; format: cell-based; settings: 1 h of treatment
Procedure: Flow cytometry. For assessment of apoptosis, treated cells were stained with Annexin V-Alexa Fluor 488 and propidium iodide according to the vendor's protocols (Molecular Probes). For caspase-3 activity, cells were incubated with the fluorogenic caspase-3 substrate (Ac-DMQD)-2-Rh110 for 20 min. ROS production was detected using the fluorescence probe 5-(and-6)-carboxy-2′,7′-dichlorodihydrofluorescein diacetate (DCFDA) as described. Hung et al., Cancer Res., 68, 1204-1212 (2008). Data were analyzed by ModFitLT V3.0 software program.

[3] = tested on: PTEN, p53, Mcl-1 in Huh7 cells; test: Western blot of signaling markers in drug-treated Huh7 cells; format: cell-based; settings: 24 h
Procedure: Immunoblotting. Immunoblotting of biomarkers in cell lysates and tumor tissue homogenates was carried out according to a published procedure. Hung et al., Cancer Res., 68, 1204-1212 (2008).

[4] = tested on: orthotopic Hep3B-luc tumors; test: Orthotopic Hep3B-luc xenograft tumor model; format: in vivo, athymic nude mice; parameters: dose or concentration left out as unconfirmed; settings: end of treatment (42 days)
Description: Orthotopic tumors were established by direct intrahepatic injection of luciferase-expressing Hep3B (Hep3B-luc) cells as described. Omar et al., Mol Pharmacol, 76, 957-968 (2009). The establishment and growth of tumors were monitored by bioluminescent imaging using the IVIS™ imaging system (Xenogen, Alameda, Calif.). […] All animal use described in this manuscript was done in accordance with protocols approved by The Ohio State University Institutional Animal Care and Use Committee.

[5] = target: T2, PP2A (Serine/Threonine Phosphatase 2A) (Homo sapiens, UniProt P67775); test: PP2A functional enzymatic assay (malachite green) in primary CLL cells; format: cell-based; settings: 24 hrs, OSU-2S 8 μM, untreated about 0.07
T2 construct: endogenous in cells; host or cells: primary CLL cells; Ramos cells
T2 sequence (P67775 whole entry): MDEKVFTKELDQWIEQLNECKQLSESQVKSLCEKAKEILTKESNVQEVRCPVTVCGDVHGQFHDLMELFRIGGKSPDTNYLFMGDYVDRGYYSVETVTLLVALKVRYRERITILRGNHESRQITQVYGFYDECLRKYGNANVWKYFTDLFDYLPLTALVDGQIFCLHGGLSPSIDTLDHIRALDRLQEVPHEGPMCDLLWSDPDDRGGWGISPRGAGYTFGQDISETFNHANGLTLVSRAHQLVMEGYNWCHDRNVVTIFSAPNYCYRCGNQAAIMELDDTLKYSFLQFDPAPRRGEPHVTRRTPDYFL
Procedure: The ability of OSU-2S to induce PP2A (Serine/Threonine Phosphatase 2A) activity in primary CLL cells was measured at 24 hrs by a functional enzymatic assay. Lysates made from OSU-2S 8 μM treated cells are used to immunoprecipitate PP2Ac which was then used as an enzyme to cleave the specific phosphor-peptide substrate in the functional assay. The cleaved free phosphates were measured by adding malachite green detection solutions and measuring the absorbance at A650 nm. Ramos cells were also included, and FTY720 was used as the control.

CLL cells [6] = test: ROS induction in CLL cells (dihydroethidium staining); format: cell-based; settings: 8 μM, untreated about 40%
Procedure: The induction of Reactive Oxygen Species (ROS) in CLL cells by OSU-2S was detected by staining OSU-2S 8 μM treated CLL cells with dihyroethidium. The ROS in the cells oxidizes DHE to ethidium staining the nucleus with a bright red fluorescence detected by flow cytometer. A hydrogen peroxide solution was used as a control.

CLL cells [7] = test: Western blot analysis in CLL cells (PARP, caspase 3, caspase 9); format: cell-based
Description: Western blot analysis as carried out to further observe the effects of OSU-2S in CLL cells. […] OSU-2S in CLL activates caspase, as evidenced by cleavage of poly (ADP-ribose) polymerase (PARP). Jurkat cell with or without UV irradiation were included as controls. […] OSU-2S was also shown to activate caspase 3 in CLL cells. […] Finally, OSU-2S activates caspase 9 in CLL.

[8] = tested on: SphK2 siRNA-transfected Huh7 cells; test: Cell viability after siRNA-mediated knockdown of SphK2; format: cell-based; settings: SphK2 siRNA vs scrambled
Procedure: as §2
Small interfering (si)RNA- or short hairpin (sh)RNA-mediated knockdown. PLC5 and Huh7 cells were transfected with the following siRNA duplexes or shRNA plasmids according to the manufacturer's protocol for the knockdown of target genes: siRNA: glutathione S-transferase (GST)-π and sphingosine kinase 2 (SphK2); shRNA constructs: pKD-PKCδ-v2. Stable clones were isolated from Huh7 cells transfected with shRNA plasmids were further subjected to stable clone isolation by geneticin. Immunoblotting was performed to confirm the knockdowns.

T1 sequence (P21453 whole entry): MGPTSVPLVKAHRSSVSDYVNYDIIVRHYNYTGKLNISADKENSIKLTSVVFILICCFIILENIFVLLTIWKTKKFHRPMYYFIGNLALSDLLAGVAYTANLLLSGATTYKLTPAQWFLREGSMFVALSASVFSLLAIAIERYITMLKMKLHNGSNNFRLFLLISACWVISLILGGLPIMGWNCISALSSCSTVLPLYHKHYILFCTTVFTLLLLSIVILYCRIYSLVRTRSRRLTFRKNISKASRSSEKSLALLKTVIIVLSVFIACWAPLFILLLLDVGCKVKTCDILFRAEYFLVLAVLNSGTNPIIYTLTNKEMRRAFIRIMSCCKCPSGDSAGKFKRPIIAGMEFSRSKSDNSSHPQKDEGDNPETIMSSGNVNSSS

CCC[C@@](N)(CO)CCc1ccc(OCCCCCC(C)C)cc1 [OSU-2S, (S)-2-amino-2-(4-[(6-methylheptyl)-oxy]phenethyl)pentan-1-ol]
S1P1 receptor internalization and clustering in the cytoplasm [1]: failed to show any appreciable effect
pIC50 (Huh7 cells): 5.62
pIC50 (Hep3B cells): 5.62
pIC50 (PLC5 cells): 5.46
sensitivity of normal human hepatocytes relative to malignant cells (normal human hepatocytes): resistant
ROS production [2]: to a greater extent than FTY720
effect on expression levels of PTEN, p53, or Mcl-1 [3]: neither OSU-2S nor FTY720 had an appreciable effect
reduction in bioluminescent intensity [4]: 80%
PP2A activity, absorbance at A650 nm [5]: about 0.20
DHE positive cell % (CLL cells [6]): about 70%
caspase 3 activation (CLL cells [7]; 24 and 48 hours, products at about 16-18 kD): caspase 3 cleaved products
PARP cleavage (CLL cells [7]; 24 and 48 hours, vs untreated): higher levels of PARP
caspase 9 activation (CLL cells [7]; products at about 30-34 kD): caspase 9 cleaved products
effect of SphK2 knockdown on antiproliferative activity (sensitizing effect) [8]: not observed
